Source: patent US10618918B2, “Substituted boronic acids as antimicrobials” (priority 2015, dated 2020)
Read-outs that look alike come from different tables or passages of the source.

Key:
KP1004 KPC-2 [1] = test: Biapenem potentiation (MPC@1), strain KP1004 KPC-2; format: cell-based; conditions: minimum BLI concentration inhibiting growth with biapenem 1 μg/mL; tested up to 40 μg/mL
Method: (§1) Biapenem was present in the test medium at 1 μg/mL. […] Table 3 summarizes the BLI potency of biapenem potentiation (MPC@1) for two strains overexpressing class A (KPC) and class D (OXA-48) carbapenemases. Biapenem MIC for each strain is also shown.

KP1086 OXA-48 = test: Biapenem potentiation (MPC@1), strain KP1086 OXA-48; format: cell-based; conditions: minimum BLI concentration inhibiting growth with biapenem 1 μg/mL; tested up to 40 μg/mL
Method: as §1

AB1053 OXA-72 = test: Meropenem potentiation (MPC@8), strain AB1053 OXA-72; format: cell-based, Acinetobacter baumannii; conditions: for MPM MPC8 AB1053 OXA-72: minimum BLI concentration inhibiting growth with meropenem 8 μg/mL, tested up to 20 μg/mL
AB1054 OXA-23 = test: Meropenem potentiation (MPC@8), strain AB1054 OXA-23; format: cell-based, Acinetobacter baumannii; conditions: for MPM MPC8 AB1054 OXA-23: minimum BLI concentration inhibiting growth with meropenem 8 μg/mL, tested up to 20 μg/mL
[2] = biological target: T1, purified class A, C and D enzymes (β-lactamases) (Acinetobacter baumannii, UniProt Q9L4P2); test: biochemical; format: biochemical; conditions: purified OXA-23; nitrocefin (NCF) as reporter substrate
T1 construct: rows headed: Ki (OXA-23, NCF), uM; other: purified OXA-23; nitrocefin (NCF) as reporter substrate

[3] = biological target: purified class A, C and D enzymes (β-lactamases) (Enterobacter cloacae, UniProt P05364); test: biochemical; format: biochemical
[4] = biological target: purified class A, C and D enzymes (β-lactamases) (Klebsiella pneumoniae, UniProt Q6XEC0); test: biochemical; format: biochemical
[5] = biological target: purified class A, C and D enzymes (β-lactamases) (Klebsiella pneumoniae, UniProt Q9F663); test: biochemical; format: biochemical
[6] = biological target: T2, purified class A, C and D enzymes (β-lactamases) (Pseudomonas aeruginosa, UniProt P24735); test: biochemical; format: biochemical
T2 construct: rows headed: Ki (Pa-AmpC, NCF), uM; other: purified Pa-AmpC; nitrocefin (NCF) as reporter substrate

ECL1002 = test: Aztreonam potentiation (MPC@4), strain ECL1002; conditions: minimum BLI concentration inhibiting growth with aztreonam 4 μg/mL; tested up to 40 μg/mL
ec308 SHV-5 = test: Aztreonam potentiation (MPC@4), strain ec308 SHV-5; conditions: minimum BLI concentration inhibiting growth with aztreonam 4 μg/mL; tested up to 40 μg/mL
ec302 TEM-10 = test: Aztreonam potentiation (MPC@4), strain ec302 TEM-10; conditions: minimum BLI concentration inhibiting growth with aztreonam 4 μg/mL; tested up to 40 μg/mL
KP1004 KPC-2 [7] = test: Aztreonam potentiation (MPC@4), strain KP1004 KPC-2; conditions: minimum BLI concentration inhibiting growth with aztreonam 4 μg/mL; tested up to 40 μg/mL
EC1010 CMY-6 = test: Aztreonam potentiation (MPC@4), strain EC1010 CMY-6; conditions: minimum BLI concentration inhibiting growth with aztreonam 4 μg/mL; tested up to 40 μg/mL
KP1010 SHV-12 = test: Aztreonam potentiation (MPC@4), strain KP1010 SHV-12; conditions: minimum BLI concentration inhibiting growth with aztreonam 4 μg/mL; tested up to 40 μg/mL
KP1009 CTX-M-15 = test: Aztreonam potentiation (MPC@4), strain KP1009 CTX-M-15; conditions: minimum BLI concentration inhibiting growth with aztreonam 4 μg/mL; tested up to 40 μg/mL
KP1005 CTX-M-14 = test: Tigemonam potentiation (MPC@4), strain KP1005 CTX-M-14; conditions: minimum BLI concentration inhibiting growth with tigemonam 4 μg/mL; tested up to 40 μg/mL
[8] = purified OXA-48, nitrocefin (NCF) as reporter substrate
[9] = purified KPC-2, nitrocefin (NCF) as reporter substrate

Structure (SMILES) | BPM MPC1 KP1004 KPC-2 (KP1004 KPC-2 [1]) | BPM MPC1 OXA-48 KP1086 (KP1086 OXA-48) | MPM MPC8 AB1053 OXA-72 (AB1053 OXA-72) | MPM MPC8 AB1054 OXA-23 (AB1054 OXA-23) | Ki [2] | Ki (OXA-48, NCF), uM [4, 8] | Ki (KPC-2, NCF), uM [5, 9] | AZT MPC4 ECL1002 (ECL1002) | AZT MPC4 SHV-5 ec308 (ec308 SHV-5) | AZT MPC4 TEM-10 ec302 (ec302 TEM-10) | AZT MPC4 KPC-2 KP1004 (KP1004 KPC-2 [7]) | AZT MPC4 CMY-6 EC1010 (EC1010 CMY-6) | AZT MPC4 SHV-12 KP1010 (KP1010 SHV-12) | AZT MPC4 CTX-M-15 KP1009 (KP1009 CTX-M-15) | TIG MPC4 CTX-M-14 KP1005 (KP1005 CTX-M-14) | Ki (P99, NCF), uM [3] | Ki [6] | also measured
O=C(O)c1c(OCC2OCCO2)ccc2c1OB(O)CC2 [Compound 26, 7-(1,3-Dioxolan-2-ylmethoxy)-2-hydroxy-3,4-dihydro-1,2-benzoxaborinine-8-carboxylic acid] | X (X = MPC@1 ≤ 5 μg/mL) | X (X = MPC@1 ≤ 5 μg/mL) | X (X = MPC@1 ≤ 5 μg/mL) | Y (Y = 5 μg/mL < MPC@1 ≤ 20 μg/mL) | < 100 nM | X (X = Ki ≤ 0.1 μM) | X (X = Ki ≤ 0.1 μM) | X (X = MPC@4 ≤ 5 μg/mL) | Y (Y = 5 μg/mL < MPC@4 ≤ 20 μg/mL) | Y (Y = 5 μg/mL < MPC@4 ≤ 20 μg/mL) | X (X = MPC@4 ≤ 5 μg/mL) | X (X = MPC@4 ≤ 5 μg/mL) | X (X = MPC@4 ≤ 5 μg/mL) | Y (Y = 5 μg/mL < MPC@4 ≤ 20 μg/mL) | Z (Z = MPC@4 > 20 μg/mL) | – | – | Ki (P99, NCF), uM ([3]; purified P99, nitrocefin (NCF) as reporter substrate): X (X = Ki ≤ 0.1 μM); Ki ([6]; purified Pa-AmpC, nitrocefin (NCF) as reporter substrate, read-out: Ki (Pa-AmpC, NCF)): < 100 nM
O=C([O-])c1c(OCC#CCO)ccc2c1O[B-](O)(O)CC2.[Na+].[Na+] [Compound 30, Disodium; 4,4-dihydroxy-8-(4-hydroxybut-2-ynoxy)-5-oxa-4-boranuidabicyclo[4.4.0]deca-1(6),7,9-triene-7-carboxylate] | X (X = MPC@1 ≤ 5 μg/mL) | Y (Y = 5 μg/mL < MPC@1 ≤ 20 μg/mL) | X (X = MPC@1 ≤ 5 μg/mL) | X (X = MPC@1 ≤ 5 μg/mL) | < 100 nM | X (X = Ki ≤ 0.1 μM) | X (X = Ki ≤ 0.1 μM) | X (X = MPC@4 ≤ 5 μg/mL) | X (X = MPC@4 ≤ 5 μg/mL) | X (X = MPC@4 ≤ 5 μg/mL) | X (X = MPC@4 ≤ 5 μg/mL) | X (X = MPC@4 ≤ 5 μg/mL) | X (X = MPC@4 ≤ 5 μg/mL) | X (X = MPC@4 ≤ 5 μg/mL) | Y (Y = 5 μg/mL < MPC@4 ≤ 20 μg/mL) | X (key: X = Ki ≤ 0.1 μM; Y = 0.1 μM < Ki ≤ 1 μM; Z = Ki > 1 μM) | < 100 nM | –
COCC#CCOc1ccc2c(c1C(=O)[O-])O[B-](O)(O)CC2.[Na+].[Na+] [Compound 31, Disodium; 4,4-dihydroxy-8-(4-methoxybut-2-ynoxy)-5-oxa-4-boranuidabicyclo[4.4.0]deca-1(6),7,9-triene-7-carboxylate] | X (X = MPC@1 ≤ 5 μg/mL) | X (X = MPC@1 ≤ 5 μg/mL) | X (X = MPC@1 ≤ 5 μg/mL) | X (X = MPC@1 ≤ 5 μg/mL) | < 100 nM | X (X = Ki ≤ 0.1 μM) | X (X = Ki ≤ 0.1 μM) | X (X = MPC@4 ≤ 5 μg/mL) | X (X = MPC@4 ≤ 5 μg/mL) | Y (Y = 5 μg/mL < MPC@4 ≤ 20 μg/mL) | X (X = MPC@4 ≤ 5 μg/mL) | X (X = MPC@4 ≤ 5 μg/mL) | X (X = MPC@4 ≤ 5 μg/mL) | Y (Y = 5 μg/mL < MPC@4 ≤ 20 μg/mL) | Y (Y = 5 μg/mL < MPC@4 ≤ 20 μg/mL) | X (key: X = Ki ≤ 0.1 μM; Y = 0.1 μM < Ki ≤ 1 μM; Z = Ki > 1 μM) | < 100 nM | –
C[S+]([O-])c1ccc2c(c1C(=O)[O-])O[B-](O)(O)CC2.[Na+].[Na+] (stereo not drawn) [Compound 40, Disodium; 4,4-dihydroxy-8-methylsulfinyl-5-oxa-4-boranuidabicyclo[4.4.0]deca-1(6),7,9-triene-7-carboxylate] | X (X = MPC@1 ≤ 5 μg/mL) | X (X = MPC@1 ≤ 5 μg/mL) | Z (Z = MPC@1 > 20 μg/mL) | Z (Z = MPC@1 > 20 μg/mL) | – | X (X = Ki ≤ 0.1 μM) | X (X = Ki ≤ 0.1 μM) | X (X = MPC@4 ≤ 5 μg/mL) | X (X = MPC@4 ≤ 5 μg/mL) | X (X = MPC@4 ≤ 5 μg/mL) | X (X = MPC@4 ≤ 5 μg/mL) | X (X = MPC@4 ≤ 5 μg/mL) | X (X = MPC@4 ≤ 5 μg/mL) | X (X = MPC@4 ≤ 5 μg/mL) | X (X = MPC@4 ≤ 5 μg/mL) | X (key: X = Ki ≤ 0.1 μM; Y = 0.1 μM < Ki ≤ 1 μM; Z = Ki > 1 μM) | < 100 nM | –
C[C@@H](O)[C@H]1C(=O)N2C(C(=O)O)=C(S[C@@H]3CN[C@H](C(=O)N(C)C)C3)[C@H](C)[C@H]12 [Meropenem, reference compound] | – | – | – | – | – | – | – | – | – | – | – | – | – | – | – | – | – | MIC (AB1053 OXA-72; Acinetobacter baumannii, strain AB1053 OXA-72, meropenem alone): > 64 µg/mL; MIC (AB1054 OXA-23; Acinetobacter baumannii, strain AB1054 OXA-23, meropenem alone): 32 µg/mL
C[C@]1(Cn2ccnn2)[C@H](C(=O)O)N2C(=O)C[C@H]2S1(=O)=O [Tazobactam, reference compound] | Z (Z = MPC@1 > 20 μg/mL) | Y (Y = 5 μg/mL < MPC@1 ≤ 20 μg/mL) | – | – | – | – | – | Z (Z = MPC@4 > 20 μg/mL) | Y (Y = 5 μg/mL < MPC@4 ≤ 20 μg/mL) | X (X = MPC@4 ≤ 5 μg/mL) | Z (Z = MPC@4 > 20 μg/mL) | Y (Y = 5 μg/mL < MPC@4 ≤ 20 μg/mL) | X (X = MPC@4 ≤ 5 μg/mL) | Y (Y = 5 μg/mL < MPC@4 ≤ 20 μg/mL) | Y (Y = 5 μg/mL < MPC@4 ≤ 20 μg/mL) | – | – | Ki (OXA-48, NCF), uM [4]: Y (key: X = Ki ≤ 0.1 μM; Y = 0.1 μM < Ki ≤ 1 μM; Z = Ki > 1 μM); Ki (KPC-2, NCF), uM [5]: Z (key: X = Ki ≤ 0.1 μM; Y = 0.1 μM < Ki ≤ 1 μM; Z = Ki > 1 μM)
